Data on 28 compounds can be found in patent US20250179078A1, “INHIBITORS OF NLRP3” (PTC THERAPEUTICS, INC., priority 2022, published 2025).

pIC50: −log10 of the molar value. Some results are limits rather than exact numbers.

A word on the pIC50: it is the negative decadic logarithm of the IC50, by convention in mol/L.

For the test, the target named is T1, NLRP3 (Homo sapiens, UniProt Q96P20).
T1 construct: host or cells: THP-1 cells differentiated with PMA
T1 sequence (Q96P20 whole entry): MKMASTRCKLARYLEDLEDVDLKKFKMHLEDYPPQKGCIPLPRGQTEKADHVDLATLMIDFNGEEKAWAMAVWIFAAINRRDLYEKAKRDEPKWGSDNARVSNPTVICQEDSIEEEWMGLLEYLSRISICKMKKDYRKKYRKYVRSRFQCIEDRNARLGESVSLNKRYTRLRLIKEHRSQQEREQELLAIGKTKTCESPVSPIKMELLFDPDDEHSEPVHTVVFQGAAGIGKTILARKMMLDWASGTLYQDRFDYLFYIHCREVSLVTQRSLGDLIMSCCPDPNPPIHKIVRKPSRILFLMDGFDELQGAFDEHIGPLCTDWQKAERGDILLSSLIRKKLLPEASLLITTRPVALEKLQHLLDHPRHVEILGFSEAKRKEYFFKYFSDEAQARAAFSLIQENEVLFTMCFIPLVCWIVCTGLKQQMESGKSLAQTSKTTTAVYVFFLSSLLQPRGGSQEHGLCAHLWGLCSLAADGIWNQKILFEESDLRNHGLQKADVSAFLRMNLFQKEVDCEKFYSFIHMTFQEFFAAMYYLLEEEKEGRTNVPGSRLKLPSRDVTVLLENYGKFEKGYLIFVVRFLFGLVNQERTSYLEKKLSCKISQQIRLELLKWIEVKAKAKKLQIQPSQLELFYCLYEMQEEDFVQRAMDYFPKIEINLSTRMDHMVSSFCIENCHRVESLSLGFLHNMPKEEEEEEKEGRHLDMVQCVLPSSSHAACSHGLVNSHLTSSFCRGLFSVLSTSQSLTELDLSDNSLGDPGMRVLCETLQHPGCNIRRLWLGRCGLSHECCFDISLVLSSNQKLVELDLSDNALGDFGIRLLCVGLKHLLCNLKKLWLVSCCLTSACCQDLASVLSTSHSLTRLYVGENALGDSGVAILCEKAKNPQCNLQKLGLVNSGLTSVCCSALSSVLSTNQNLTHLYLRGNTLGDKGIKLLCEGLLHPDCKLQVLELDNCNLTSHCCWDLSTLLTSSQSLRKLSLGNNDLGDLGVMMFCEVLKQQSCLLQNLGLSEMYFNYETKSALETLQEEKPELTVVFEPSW
In words: IL-1β Secretion Assay (NLRP3-dependent IL1β secretion in THP1 cells). The following applies: PMA-differentiated THP-1 cells; compounds incubated 20 h; 2.5 μM Nigericin 3 h; HTRF IL-1β readout; read-out: IC50 IL-1β Inhibition. It counts as cell-based. As for the experimental part: Monocytic THP-1 cells (ATCC: TIB-202) were maintained in growth media consisting of RPMI 1640 medium (ThermoFisher, Cat #11875-085), 10% FBS (ThermoFisher) and 0.05 mM β-mercaptoethanol (ThermoFisher, Cat #21985-023), according to the provider's instructions. The cell concentration was adjusted to 7.5×10^5 cells/mL, and plated in complete growth media with a final concentration of 100 ng/mL phorbol 12-myristate 13-acetate (PMA, Sigma #P8139). Cells were seeded at 100 µL/well into a 96-well cell culture plate (ThermoFisher Cat #165305) and allowed to differentiate for 24 h in a cell culture incubator at 37° C. with 5% CO2. Cells were washed 1× with 100 ul PBS and replaced with fresh RPMI+5% FBS. Compounds were serial diluted in DMSO with 3 fold dilution for a total of 7 concentrations. Diluted compounds were added to the cells at a ratio of 1:200 and incubated for 20 h. The NLRP3 inflammasome was activated with the addition of 2.5 μM Nigericin (Sigma: Cat #SML1779-1 ml), for 3 h. After incubation, 15 μL of conditioned media was removed and assayed for levels of IL-1β using the HTRF IL-1β assay kit (Cisbio: Cat #62HIL1BPEH) as per the manufacturer's instructions.
Compounds, once produced and prepared according to the present invention, can be assessed in variety of assays to characterize their activities. For example, NLRP3-dependent IL1β secretion was evaluated in THP1 cells. IC50 values of IL1β inhibition were calculated from the plot of percentage of inhibition versus the inhibitor concentration by a logistics fit. TABLE I depict examples of compounds according to generic Formula I. Data which is <1 nM is listed as *****; data 1-10 nM is listed as ****; data 10-100 nM is listed as ***, data 100-300 nM is listed as **, data ≥300 nM is listed as *.
In general terms: In TR-FRET formats the signal depends on donor and acceptor labels being close together.
Turning to `CCN1CCC[C@@H](Nc2nnc(-c3ccc(OC)cc3OC(F)F)c3c(F)ccn23)C1` [Compound 56, 1-[2-(difluoromethoxy)-4-methoxyphenyl]-N-[(3R)-1-ethylpiperidin-3-yl]-8-fluoropyrrolo[1,2-d][1,2,4]triazin-4-amine], the pIC50 is > 9.00.

Regarding `CCN1CCC[C@@H](Nc2nnc(-c3ccc(OC(F)F)cc3OC(F)(F)F)c3cccn23)C1` [Compound 85, 1-[4-(difluoromethoxy)-2-(trifluoromethoxy)phenyl]-N-[(3R)-1-ethylpiperidin-3-yl]pyrrolo[1,2-d][1,2,4]triazin-4-amine], the pIC50 was > 9.00.

With `O[C@@H]1CCCC[C@H]1Nc1nnc(-c2ccc(Cl)cc2OC(F)(F)F)c2cncn12` [Compound 300, (1R,2R)-2-({1-[4-chloro-2-(trifluoromethoxy)phenyl]imidazo[1,5-d][1,2,4]triazin-4-yl}amino)cyclohexan-1-ol], the pIC50 was 8.00 to 9.00.

As to `COc1ccc(-c2nnc(N[C@@H]3CCCN(CCO)C3)n3ccc(F)c23)c(Cl)c1` [Compound 83, 2-[(3R)-3-{[1-(2-chloro-4-methoxyphenyl)-8-fluoropyrrolo[1,2-d][1,2,4]triazin-4-yl]amino}piperidin-1-yl]ethan-1-ol], the pIC50 is 8.00 to 9.00.

With `CCN1CCC[C@@H](Nc2nnc(-c3ccc(Cl)cc3OC(F)F)c3cncn23)C1` [Compound 191, 1-[4-chloro-2-(difluoromethoxy)phenyl]-N-[(3R)-1-ethylpiperidin-3-yl]imidazo[1,5-d][1,2,4]triazin-4-amine], the pIC50 was > 9.00.

As to `C[C@]1(O)C[C@@H](Nc2nnc(-c3ccc(C(F)(F)F)cc3OC(F)F)c3cncn23)C1` [Compound 187, (1s,3s)-3-({1-[2-(difluoromethoxy)-4-(trifluoromethyl)phenyl]imidazo[1,5-d][1,2,4]triazin-4-yl}amino)-1-methylcyclobutan-1-ol], the pIC50 is 8.00 to 9.00.

For `CC(Nc1nnc(-c2ccc(C(F)(F)F)cc2OC(F)(F)F)c2cccn12)c1cccc(O)c1` (stereo not shown) [Compound 142, 3-[1-({1-[2-(trifluoromethoxy)-4-(trifluoromethyl)phenyl]pyrrolo[1,2-d][1,2,4]triazin-4-yl}amino)ethyl]phenol], the pIC50 was 8.00 to 9.00.

On to `COc1ccc(-c2nnc(N[C@@H]3C[C@@H](F)CN(C)C3)n3cncc23)c(CC(F)(F)F)c1` [Compound 277, N-[(3R,5R)-5-fluoro-1-methylpiperidin-3-yl]-1-[4-methoxy-2-(2,2,2-trifluoroethyl)phenyl]imidazo[1,5-d][1,2,4]triazin-4-amine], for which the pIC50 is 8.00 to 9.00.

For `C[C@@H](Nc1nnc(-c2ccc(C(F)(F)F)cc2OC(F)F)c2cccn12)c1cccc(O)c1` (single isomer, unassigned) [Compound 102], the pIC50 was 8.00 to 9.00.

As to `CCN1CCC[C@@H](Nc2nnc(-c3ccc(OC)cc3Cl)c3cc(C)nn23)C1` [Compound 374, 4-(2-chloro-4-methoxyphenyl)-N-[(3R)-1-ethylpiperidin-3-yl]-2-methylpyrazolo[1,5-d][1,2,4]triazin-7-amine], the pIC50 was 8.00 to 9.00.

As for `Cc1cc2c(-c3ccc(C4CC4)cc3OC(F)F)nnc(N[C@@H]3CCCN(C)C3)n2c1` [Compound 24, 1-[4-cyclopropyl-2-(difluoromethoxy)phenyl]-7-methyl-N-[(3R)-1-methylpiperidin-3-yl]pyrrolo[1,2-d][1,2,4]triazin-4-amine], the pIC50 is > 9.00.

As for `Cc1ccc(-c2nnc(N[C@@H]3CCCC[C@H]3O)n3cncc23)c(CC(F)(F)F)c1` [Compound 286, (1R,2R)-2-({1-[4-methyl-2-(2,2,2-trifluoroethyl)phenyl]imidazo[1,5-d][1,2,4]triazin-4-yl}amino)cyclohexan-1-ol], the pIC50 is 8.00 to 9.00.

As to `Cc1ccc(-c2nnc(N[C@@H]3CCCN(C)C3)n3cc(C)cc23)c(OC(F)F)c1` [Compound 25, 1-[2-(difluoromethoxy)-4-methylphenyl]-7-methyl-N-[(3R)-1-methylpiperidin-3-yl]pyrrolo[1,2-d][1,2,4]triazin-4-amine], the pIC50 was 8.00 to 9.00.

Consider `OC[C@H]1C[C@@H](Nc2nnc(-c3ccc(C(F)(F)F)cc3CC(F)(F)F)c3cncn23)C1` [Compound 264], for which the negative-log IC50 (pIC50) is > 9.00.

For `O=C1NCCC1Nc1nnc(-c2ccc(C(F)(F)F)cc2OC(F)(F)F)c2cncn12` (stereo not shown) [Compound 256, 3-({1-[2-(trifluoromethoxy)-4-(trifluoromethyl)phenyl]imidazo[1,5-d][1,2,4]triazin-4-yl}amino)pyrrolidin-2-one], the pIC50 was > 9.00.

For the compound `OCCN1CCC[C@@H](Nc2nnc(-c3ccc(C(F)(F)F)cc3C(F)(F)F)c3cncn23)C1` [Compound 253, 2-[(3R)-3-({1-[2,4-bis(trifluoromethyl)phenyl]imidazo[1,5-d][1,2,4]triazin-4-yl}amino)piperidin-1-yl]ethan-1-ol], the pIC50 is 8.00 to 9.00.

As to `CN1CCCC(Nc2nnc(-c3ccc(OC(F)F)cc3OC(F)(F)F)c3cncn23)C1=O` (stereo not shown) [Compound 328, 3-({1-[4-(difluoromethoxy)-2-(trifluoromethoxy)phenyl]imidazo[1,5-d][1,2,4]triazin-4-yl}amino)-1-methylpiperidin-2-one], the pIC50 is 7.00 to 8.00.

Consider `COc1ccc(-c2nnc(NC(C)c3cccnc3)n3cncc23)c(OC(F)(F)F)c1` (single isomer, unassigned) [Compound 309], for which the pIC50 was 7.00 to 8.00.

As to `COc1ccc(-c2nnc(N[C@H]3CCC[C@@H](CO)C3)n3cccc23)c(OC(F)F)c1` [Compound 176, [(1R,3S)-3-({1-[2-(difluoromethoxy)-4-methoxyphenyl]pyrrolo[1,2-d][1,2,4]triazin-4-yl}amino)cyclohexyl]methanol], the pIC50 is 7.00 to 8.00.

With `O[C@H]1CCCC[C@@H]1Nc1nnc(-c2ccc(C(F)(F)F)cc2C(F)(F)F)c2cccn12` [Compound 99, (1S,2S)-2-({1-[2,4-bis(trifluoromethyl)phenyl]pyrrolo[1,2-d][1,2,4]triazin-4-yl}amino)cyclohexan-1-ol], the pIC50 was 6.52 to 7.00.

For the compound `COc1ccc(-c2nnc(N[C@@H]3CCCN(C)C3)n3cc(C)cc23)c(OC(F)(F)F)c1` [Compound 131, 1-[4-methoxy-2-(trifluoromethoxy)phenyl]-7-methyl-N-[(3R)-1-methylpiperidin-3-yl]pyrrolo[1,2-d][1,2,4]triazin-4-amine], the pIC50 is > 9.00.

Regarding `Cc1cc2c(-c3ccc(C(F)(F)F)cc3OC(F)F)nnc(N[C@H]3C[C@@](C)(O)C3)n2n1` [Compound 380, (1s,3s)-3-({4-[2-(difluoromethoxy)-4-(trifluoromethyl)phenyl]-2-methylpyrazolo[1,5-d][1,2,4]triazin-7-yl}amino)-1-methylcyclobutan-1-ol], the pIC50 was 8.00 to 9.00.

Take `Cc1ccc(-c2nnc(N[C@H]3C[C@@](C)(O)C3)n3cncc23)c(CC(F)(F)F)c1` [Compound 318, (1s,3s)-1-methyl-3-({1-[4-methyl-2-(2,2,2-trifluoroethyl)phenyl]imidazo[1,5-d][1,2,4]triazin-4-yl}amino)cyclobutan-1-ol]: the pIC50 was 8.00 to 9.00.

Consider `Cc1cc2c(-c3ccc(Cl)cc3C(F)F)nnc(N[C@@H]3CCCN(C)C3)n2n1` [Compound 362, 4-[4-chloro-2-(difluoromethyl)phenyl]-2-methyl-N-[(3R)-1-methylpiperidin-3-yl]pyrazolo[1,5-d][1,2,4]triazin-7-amine], for which the pIC50 was 7.00 to 8.00.

`CCN1CCC[C@@H](Nc2nnc(-c3ccc(OC)cc3OC(F)F)c3cccn23)C1` [Compound 166, 1-[2-(difluoromethoxy)-4-methoxyphenyl]-N-[(3R)-1-ethylpiperidin-3-yl]pyrrolo[1,2-d][1,2,4]triazin-4-amine]: the pIC50 is > 9.00.

Turning to `O[C@H]1CCC[C@@H](Nc2nnc(-c3ccc(C(F)(F)F)cc3C(F)(F)F)c3cncn23)C1` [Compound 215, (1S,3R)-3-({1-[2,4-bis(trifluoromethyl)phenyl]imidazo[1,5-d][1,2,4]triazin-4-yl}amino)cyclohexan-1-ol], the pIC50 is 7.00 to 8.00.

In the case of `O[C@@H]1CCCC[C@H]1Nc1nnc(-c2ccc(C(F)(F)F)cc2C(F)(F)F)c2ccnn12` [Compound 394, (1R,2R)-2-({4-[2,4-bis(trifluoromethyl)phenyl]pyrazolo[1,5-d][1,2,4]triazin-7-yl}amino)cyclohexan-1-ol], the pIC50 was 8.00 to 9.00.

Turning to `COc1ccc(-c2nnc(N[C@H]3C[C@@](C)(O)C3)n3ccc(F)c23)c(C(F)(F)F)c1` [Compound 130, (1s,3s)-3-({8-fluoro-1-[4-methoxy-2-(trifluoromethyl)phenyl]pyrrolo[1,2-d][1,2,4]triazin-4-yl}amino)-1-methylcyclobutan-1-ol], the pIC50 is 8.00 to 9.00.
